Consider seven compounds from ChEMBL document CHEMBL3822358 (J Med Chem, 2016).

For data set [1], the target named is Insulin-like growth factor 1 receptor (Homo sapiens, UniProt P08069).
For a further data set, the target named is Insulin receptor (Homo sapiens, UniProt P06213).
The nature of data set [2]: AUC (0 to infinity) in CD rat at 3 mg/kg, iv by LC-MS/MS analysis. The class given is ADME, organism-based. Also on record: dose 3 mg/kg, time infinity, route intravenous. The note with it: CD, in vivo.
Data set [3] is described as follows: Clearance in CD rat at 3 mg/kg, iv by LC-MS/MS analysis. The class given is ADME, organism-based. The following applies: in vivo.
Data set [4] can be described thus: Half life in CD rat at 3 mg/kg, iv by LC-MS/MS analysis. The class given is ADME, organism-based. The note with it: CD, in vivo.
Data set [5] is described as follows: Volume of distribution at steady state in CD rat at 3 mg/kg, iv by LC-MS/MS analysis. The class given is ADME, organism-based. The following applies: CD, in vivo, read-out: Vdss.
Data set [6] is described as follows: Cmax in CD rat at 10 mg/kg, po by LC-MS/MS analysis. The class given is ADME, organism-based. More on the design: dose 10 mg/kg, route oral. The note with it: in vivo.
A short description of data set [7]: AUC (0 to infinity) in CD rat at 10 mg/kg, po by LC-MS/MS analysis. The format is ADME, organism-based. More on the design: dose 10 mg/kg, route oral, time infinity. The note with it: in vivo.
Data set [8] in a line: Tmax in CD rat at 10 mg/kg, po by LC-MS/MS analysis. The class given is ADME, organism-based. The note with it: in vivo.
The nature of data set [9]: Half life in CD rat at 10 mg/kg, po by LC-MS/MS analysis. The format is ADME, organism-based. The note with it: in vivo.
The nature of data set [10]: Oral bioavailability in CD rat at 10 mg/kg by LC-MS/MS analysis. The format is ADME, organism-based. The following applies: in vivo.
The nature of data set [11]: Cmax in mouse at 10 mg/kg, po by LC-MS/MS analysis. The class given is ADME, organism-based. Also on record: dose 10 mg/kg, route oral. The note with it: in vivo.
Data set [12] can be described thus: AUC (0 to 24 hrs) in mouse at 10 mg/kg, po by LC-MS/MS analysis. The class given is ADME, organism-based. Also on record: time < 24 hr, dose 10 mg/kg, route oral. The note with it: in vivo.
A short description of data set [13]: Half life in mouse at 10 mg/kg, po by LC-MS/MS analysis. The note with it: in vivo. The class given is ADME, organism-based.
Data set [14] has as its target T1, ALK tyrosine kinase receptor (Homo sapiens, UniProt Q9UM73). Nature of the data set: Inhibition of ALK phosphorylation in mouse xenografted with human KARPAS299 cells assessed as p-ALK level at 25 mg/kg, po administered as single dose measured after 10 hrs relative to 2 hrs vehicle-treated tumor. The format is organism-based. More on the design: scale not given: the % may be the effect or the level left. The note with it: KARPAS-299. (In general: Xenograft models place foreign cells or tissue in a host animal.)

Data set [15] concerns the target T1, ALK tyrosine kinase receptor. Description: Inhibition of ALK phosphorylation in mouse xenografted with human KARPAS299 cells assessed as p-ALK level at 25 mg/kg, po administered as single dose measured after 16 hrs relative to 2 hrs vehicle-treated tumor. The class given is organism-based. Also on record: scale not given: the % may be the effect or the level left. The following applies: KARPAS-299.

The target is the same in data set [16]. Nature of the data set: Inhibition of ALK phosphorylation in mouse xenografted with human KARPAS299 cells assessed as p-ALK level at 25 mg/kg, po administered as single dose measured after 24 hrs relative to 2 hrs vehicle-treated tumor. The class given is organism-based. Also on record: scale not given: the % may be the effect or the level left. The note with it: KARPAS-299.

Data set [17] has the same target.
Target sequence in this assay (Q9UM73 whole entry): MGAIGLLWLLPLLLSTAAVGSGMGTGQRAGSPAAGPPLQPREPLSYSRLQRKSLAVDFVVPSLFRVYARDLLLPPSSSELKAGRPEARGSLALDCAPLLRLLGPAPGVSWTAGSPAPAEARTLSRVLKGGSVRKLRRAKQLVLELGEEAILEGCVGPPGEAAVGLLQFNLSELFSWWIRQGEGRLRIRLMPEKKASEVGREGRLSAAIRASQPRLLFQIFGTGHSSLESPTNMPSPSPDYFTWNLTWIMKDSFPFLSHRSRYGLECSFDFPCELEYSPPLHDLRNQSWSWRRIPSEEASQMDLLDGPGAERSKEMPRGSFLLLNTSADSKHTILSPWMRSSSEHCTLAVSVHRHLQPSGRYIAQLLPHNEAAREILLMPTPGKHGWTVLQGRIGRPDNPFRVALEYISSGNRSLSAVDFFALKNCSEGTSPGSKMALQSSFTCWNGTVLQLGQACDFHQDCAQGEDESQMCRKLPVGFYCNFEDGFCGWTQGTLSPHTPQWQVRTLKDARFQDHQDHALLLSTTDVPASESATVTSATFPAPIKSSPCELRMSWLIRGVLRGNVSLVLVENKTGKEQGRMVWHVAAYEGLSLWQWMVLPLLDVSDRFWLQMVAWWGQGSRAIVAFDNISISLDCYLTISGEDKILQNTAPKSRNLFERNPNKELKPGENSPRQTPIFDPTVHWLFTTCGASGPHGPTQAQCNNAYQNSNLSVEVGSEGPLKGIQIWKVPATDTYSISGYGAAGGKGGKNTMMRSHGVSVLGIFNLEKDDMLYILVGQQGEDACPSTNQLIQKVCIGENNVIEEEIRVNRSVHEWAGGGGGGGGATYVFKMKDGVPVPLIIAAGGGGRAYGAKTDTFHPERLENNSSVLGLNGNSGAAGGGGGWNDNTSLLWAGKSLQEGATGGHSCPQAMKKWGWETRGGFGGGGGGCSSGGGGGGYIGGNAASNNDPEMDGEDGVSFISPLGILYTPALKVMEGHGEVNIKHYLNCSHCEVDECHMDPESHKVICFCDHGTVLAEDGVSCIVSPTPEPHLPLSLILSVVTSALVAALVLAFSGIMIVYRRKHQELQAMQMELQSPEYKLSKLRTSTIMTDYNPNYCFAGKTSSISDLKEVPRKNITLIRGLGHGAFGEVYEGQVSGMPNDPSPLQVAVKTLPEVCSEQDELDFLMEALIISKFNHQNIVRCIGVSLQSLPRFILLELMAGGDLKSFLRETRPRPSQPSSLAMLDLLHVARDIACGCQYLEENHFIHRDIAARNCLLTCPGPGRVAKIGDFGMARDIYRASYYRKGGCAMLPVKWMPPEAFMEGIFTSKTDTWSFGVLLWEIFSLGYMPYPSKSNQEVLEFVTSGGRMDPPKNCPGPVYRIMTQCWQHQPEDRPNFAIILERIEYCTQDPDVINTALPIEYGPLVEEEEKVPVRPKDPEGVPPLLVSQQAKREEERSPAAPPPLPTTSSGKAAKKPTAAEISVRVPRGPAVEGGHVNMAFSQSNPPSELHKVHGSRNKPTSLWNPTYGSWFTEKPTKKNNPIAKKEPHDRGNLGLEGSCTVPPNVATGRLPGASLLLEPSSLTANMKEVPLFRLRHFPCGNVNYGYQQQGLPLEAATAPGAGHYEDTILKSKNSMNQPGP
Description: Inhibition of human ALK using poly[Glu:Tyr] (4:1) as substrate and [gamma-33P]ATP measured after 1 hr
Data set [18] is described as follows: cells. The note with it: Homo sapiens, KARPAS-299, 72 h.
Description: Antiproliferative activity against human ALK-positive KARPAS299 cells assessed as reduction in cell viability measured after 72 hrs by CellTiter 96 aqueous one solution cell proliferation assay
Data set [19] is described as follows: cells. The note with it: Homo sapiens, U-937, 72 h.
Description: Antiproliferative activity against human ALK-negative U937 cells assessed as reduction in cell viability measured after 72 hrs by CellTiter 96 aqueous one solution cell proliferation assay
In data set [20] the target is T1, ALK tyrosine kinase receptor. Nature of the data set: Inhibition of ALK phosphorylation in mouse xenografted with human KARPAS299 cells assessed as p-ALK level at 25 mg/kg, po administered as single dose measured after 8 hrs relative to 2 hrs vehicle-treated tumor. The format is organism-based. Also on record: scale not given: the % may be the effect or the level left. The following applies: KARPAS-299.

Data set [21] is described as follows: animal or person. The following applies: Homo sapiens, KARPAS-299, po, 312 h, read-out: TGI.
Description: Antitumor activity against human KARPAS299 cells expressing NMP-ALK fusion protein xenografted in SCID/beige mouse assessed as tumor growth inhibition at 10 mg/kg, po administered once daily for 13 days relative to untreated control
A short description of data set [22]: animal or person. The note with it: Homo sapiens, KARPAS-299, po, 312 h, read-out: TGI. This is another data set of the same source.
Description: Antitumor activity against human KARPAS299 cells expressing NMP-ALK fusion protein xenografted in SCID/beige mouse assessed as tumor growth inhibition at 25 mg/kg, po administered once daily for 13 days relative to untreated control
A short description of data set [23]: animal or person. The note with it: Homo sapiens, KARPAS-299, po, 312 h, read-out: TGI. The source holds these as a separate data set.
Description: Antitumor activity against human KARPAS299 cells expressing NMP-ALK fusion protein xenografted in SCID/beige mouse assessed as tumor growth inhibition at 50 mg/kg, po administered once daily for 13 days relative to untreated control

Chain of Insulin-like growth factor 1 receptor (P08069 31-736 limits assumed): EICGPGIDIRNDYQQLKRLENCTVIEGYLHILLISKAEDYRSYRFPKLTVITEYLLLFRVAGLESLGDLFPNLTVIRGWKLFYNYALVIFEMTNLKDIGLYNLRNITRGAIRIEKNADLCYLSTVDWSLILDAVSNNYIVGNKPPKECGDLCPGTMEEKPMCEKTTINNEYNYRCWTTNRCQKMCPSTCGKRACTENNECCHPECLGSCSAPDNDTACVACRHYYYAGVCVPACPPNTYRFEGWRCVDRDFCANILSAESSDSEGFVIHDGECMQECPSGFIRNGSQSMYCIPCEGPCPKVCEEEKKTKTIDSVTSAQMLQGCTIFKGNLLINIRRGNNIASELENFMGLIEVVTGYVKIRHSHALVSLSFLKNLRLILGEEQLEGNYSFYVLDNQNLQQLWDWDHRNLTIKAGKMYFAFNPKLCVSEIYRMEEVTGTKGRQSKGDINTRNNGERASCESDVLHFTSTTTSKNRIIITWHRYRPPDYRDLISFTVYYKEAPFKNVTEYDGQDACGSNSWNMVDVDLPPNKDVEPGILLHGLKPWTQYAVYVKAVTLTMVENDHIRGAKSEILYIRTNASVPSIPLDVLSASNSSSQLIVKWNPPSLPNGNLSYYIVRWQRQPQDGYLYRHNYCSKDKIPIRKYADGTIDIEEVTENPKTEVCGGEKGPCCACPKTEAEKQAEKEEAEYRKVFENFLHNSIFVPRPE
Chain of Insulin-like growth factor 1 receptor (P08069 741-1367 limits assumed): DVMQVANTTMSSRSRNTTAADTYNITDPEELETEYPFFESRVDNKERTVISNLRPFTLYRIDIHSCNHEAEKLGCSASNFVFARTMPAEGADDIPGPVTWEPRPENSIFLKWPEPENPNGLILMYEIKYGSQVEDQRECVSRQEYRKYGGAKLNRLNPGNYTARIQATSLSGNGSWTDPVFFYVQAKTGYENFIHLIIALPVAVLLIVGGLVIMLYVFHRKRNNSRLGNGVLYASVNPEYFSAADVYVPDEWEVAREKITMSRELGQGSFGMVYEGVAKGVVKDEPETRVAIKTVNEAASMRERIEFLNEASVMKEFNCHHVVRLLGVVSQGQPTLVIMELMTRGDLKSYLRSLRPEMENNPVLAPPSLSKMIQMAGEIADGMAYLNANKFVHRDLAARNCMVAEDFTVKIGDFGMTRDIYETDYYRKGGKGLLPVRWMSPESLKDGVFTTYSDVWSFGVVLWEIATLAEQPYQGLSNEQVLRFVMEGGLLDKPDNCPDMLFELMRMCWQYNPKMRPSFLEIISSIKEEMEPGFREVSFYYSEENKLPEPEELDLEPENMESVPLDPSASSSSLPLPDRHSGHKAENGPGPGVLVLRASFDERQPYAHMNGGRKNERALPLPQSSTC
Chain of Insulin receptor (P06213 28-758 limits assumed): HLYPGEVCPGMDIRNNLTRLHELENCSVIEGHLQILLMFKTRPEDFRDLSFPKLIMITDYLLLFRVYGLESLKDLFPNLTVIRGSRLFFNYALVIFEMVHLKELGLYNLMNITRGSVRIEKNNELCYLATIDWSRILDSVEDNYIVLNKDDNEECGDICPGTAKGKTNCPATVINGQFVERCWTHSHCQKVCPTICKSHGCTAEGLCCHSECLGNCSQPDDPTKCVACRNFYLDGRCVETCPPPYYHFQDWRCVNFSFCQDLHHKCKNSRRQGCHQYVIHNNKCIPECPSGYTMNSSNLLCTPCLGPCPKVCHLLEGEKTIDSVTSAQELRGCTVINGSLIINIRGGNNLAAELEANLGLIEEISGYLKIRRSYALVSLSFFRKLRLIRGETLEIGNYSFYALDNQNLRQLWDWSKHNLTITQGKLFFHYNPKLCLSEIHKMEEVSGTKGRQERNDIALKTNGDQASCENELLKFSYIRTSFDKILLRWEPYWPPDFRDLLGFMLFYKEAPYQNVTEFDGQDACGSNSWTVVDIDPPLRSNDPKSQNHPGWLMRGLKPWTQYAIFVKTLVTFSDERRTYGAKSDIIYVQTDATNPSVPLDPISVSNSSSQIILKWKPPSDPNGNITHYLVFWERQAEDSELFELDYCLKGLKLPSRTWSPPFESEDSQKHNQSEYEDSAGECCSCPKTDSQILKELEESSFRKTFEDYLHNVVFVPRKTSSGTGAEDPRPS
Chain of Insulin receptor (P06213 763-1382 limits assumed): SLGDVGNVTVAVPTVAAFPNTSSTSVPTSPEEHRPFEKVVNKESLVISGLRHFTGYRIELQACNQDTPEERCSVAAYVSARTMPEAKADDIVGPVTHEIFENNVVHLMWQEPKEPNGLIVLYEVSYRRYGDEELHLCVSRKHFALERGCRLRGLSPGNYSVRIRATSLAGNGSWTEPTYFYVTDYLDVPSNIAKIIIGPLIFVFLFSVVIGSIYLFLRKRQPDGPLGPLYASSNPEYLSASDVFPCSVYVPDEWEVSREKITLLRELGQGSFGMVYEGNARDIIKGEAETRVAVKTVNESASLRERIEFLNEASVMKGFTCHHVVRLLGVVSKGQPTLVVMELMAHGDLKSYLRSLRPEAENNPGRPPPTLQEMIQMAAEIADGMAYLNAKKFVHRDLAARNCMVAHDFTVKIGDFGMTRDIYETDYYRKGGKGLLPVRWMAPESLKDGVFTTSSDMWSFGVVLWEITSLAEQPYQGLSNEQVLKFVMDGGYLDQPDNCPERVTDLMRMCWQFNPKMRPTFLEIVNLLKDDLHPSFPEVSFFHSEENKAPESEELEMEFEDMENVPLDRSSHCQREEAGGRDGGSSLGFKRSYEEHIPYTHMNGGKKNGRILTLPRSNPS
Description for Insulin receptor: Inhibition of human InsR using myelin basic protein as substrate and [gamma-33P]ATP measured after 1 hr

The IC50 is the concentration needed to halve the response being measured. As a reminder, the AUC(0-inf) is the area under the concentration-time curve extrapolated to infinity. The term clearance denotes the rate of elimination divided by the concentration. What is called half-life is the time in which the quantity being followed falls by half. By Cmax is commonly meant the highest concentration seen after dosing. Usually Tmax stands for the time from dosing to the highest level. The term AUC(0-t) denotes the area under the concentration-time curve up to a stated or last time point. Turning to `COc1cc(N2CCC(CN3CCC3)CC2)ccc1Nc1ncc(Cl)c(Nc2ccccc2P(C)(C)=O)n1`, the IC50 in data set [1] was determined as 0.0316 µM; at Insulin receptor it was 0.13 µM; in data set [17], 0.00088 µM; in “cells [18]”, 0.0299 µM; in the data set “cells [19]”, 2.73 µM. The AUC(0-inf) was determined as 8620 ng·h/mL in data set [2] and 4570 ng·h/mL in [7]. Moreover, in [3], the clearance was 5.83 mL/min/kg. The half-life was 3.6 h in [4], 3.4 h in data set [9] and 3.1 h in data set [13]. Also, the Vd in data set [5] was 1.46 L/kg. Moreover, the results for the Cmax in data set [6] and in data set [11] were 353 ng/mL and 498 ng/mL, respectively. For the same compound, the Tmax in data set [8] was 6 h. Besides, the bioavailability in data set [10] came out at 16%. Also, the AUC(0-t) at 24 h in data set [12] was found to be 6490 ng·h/mL. The values for the Activity in data set [14], in data set [15] and in data set [16] were 13%, 60% and 104%, respectively.
`COc1cc(N2CCC(O)CC2)ccc1Nc1ncc(Cl)c(Nc2ccccc2P(C)(C)=O)n1`: the half-inhibitory concentration (IC50) in [1] came out at 0.0269 µM; against Insulin receptor, 0.171 µM; in [17] it was 0.00036 µM; in “cells [18]” it was 0.0704 µM; in “cells [19]”, 7.23 µM. Besides, the total exposure AUC(0-inf) in data set [2] was found to be 4550 ng·h/mL; in data set [7], 9720 ng·h/mL. For the same compound, the clearance in data set [3] is 10.7 mL/min/kg. Moreover, the half-life in [4] was 5.6 h; in [9], 2.7 h; in [13], 2.2 h. Further, the Vd in data set [5] came out at 2.74 L/kg. Further, the figures for the Cmax in [6] and in data set [11] were 772 ng/mL and 2940 ng/mL, respectively. The Tmax in data set [8] is 0.25 h. For the same compound, in [10], the bioavailability was 64%. Moreover, the AUC(0-t) at 24 h in [12] came to 13300 ng·h/mL. The Activity in [15] came to 25%; in data set [16], 168%; in [20] it was 41%. Moreover, the inhibition in vivo at 10 mg/kg in “animal or person [21]” amounted to 96%. The inhibition in vivo at 25 mg/kg in the data set “animal or person [22]” was found to be 85%. Further, the inhibition in vivo at 50 mg/kg in “animal or person [23]” was determined as 67%.
For `COc1cc(C2CCN(C)CC2)ccc1Nc1ncc(Cl)c(Nc2ccccc2P(C)(C)=O)n1`, the IC50 in data set [1] came to 0.0082 µM; at Insulin receptor, 0.0572 µM; in data set [17], 0.00038 µM; in “cells [18]”, 0.0192 µM; in the data set “cells [19]”, 3.56 µM. Further, the AUC(0-inf) in data set [2] was 1550 ng·h/mL; in data set [7] it was 5670 ng·h/mL. In [3], this compound showed a clearance of 31.8 mL/min/kg. For the same compound, the half-life in data set [4] was 4 h; in data set [9], 2.5 h; in data set [13], 5 h. Further, in data set [5], the Vd worked out at 8.55 L/kg. The Cmax was 601 ng/mL in [6] and 421 ng/mL in [11]. In [8], the Tmax was 4 h. Also, the bioavailability in [10] stood at 110%. This compound came in with an AUC(0-t) at 24 h in data set [12] of 3450 ng·h/mL. Besides, the Activity in data set [14] came to 1%; in [15], 69%; in [16], 118%.
`COc1cc(OC2CCN(C)CC2)ccc1Nc1ncc(Cl)c(Nc2ccccc2P(C)(C)=O)n1`: the IC50 in [1] was 0.0865 µM; against Insulin receptor, 0.343 µM; in data set [17] it was 0.00054 µM; in “cells [18]”, 0.0555 µM; in “cells [19]”, 4.52 µM. Further, the AUC(0-inf) in data set [2] turned out to be 5040 ng·h/mL; in [7], 9220 ng·h/mL. The compound further had a clearance in [3] of 9.83 mL/min/kg. For the same compound, the half-life in [4] was 3.6 h; in data set [9], 3.9 h; in data set [13], 1.6 h. For the same compound, the Vd in [5] was determined as 2.89 L/kg. Besides, the Cmax in [6] is 659 ng/mL; in data set [11] it was 184 ng/mL. Moreover, the Tmax in [8] was found to be 4 h. Further, the bioavailability in [10] amounted to 55%. Also, in [12], the AUC(0-t) at 24 h was found to be 951 ng·h/mL. For the same compound, the figures for the Activity in data set [14], in data set [15] and in data set [16] were 23%, 125% and 160%, respectively.
In the case of `COc1cc(N2CCC(N3CCOCC3)CC2)ccc1Nc1ncc(Cl)c(Nc2ccccc2P(C)(C)=O)n1`, the IC50 in data set [1] was 0.0473 µM; on Insulin receptor, 0.27 µM; in data set [17], 0.00049 µM; in the data set “cells [18]” it was 0.061 µM; in “cells [19]”, 5.68 µM. Moreover, the AUC(0-inf) in [2] turned out to be 17900 ng·h/mL; in [7], 43600 ng·h/mL. In data set [3], this compound showed a clearance of 2.83 mL/min/kg. In addition, the half-life in data set [4] was 3.9 h; in [9] it was 6.8 h. In data set [5], the Vd was found to be 0.78 L/kg. In data set [6], this compound returned a Cmax of 2840 ng/mL. For the same compound, the Tmax in data set [8] turned out to be 2 h. Besides, in data set [10], the bioavailability worked out at 73%. For the same compound, the results for the Activity in data set [14], in [15] and in data set [16] were 15%, 52% and 50%, respectively.
As to `COc1cc(N2CCC(N3CCCC3)CC2)ccc1Nc1ncc(Cl)c(Nc2ccccc2P(C)(C)=O)n1`, the IC50 in [1] is 0.0203 µM; at Insulin receptor, 0.0853 µM; in [17] it was 0.00053 µM; in “cells [18]” it was 0.0211 µM; in “cells [19]”, 1.68 µM. For the same compound, the AUC(0-inf) is 2170 ng·h/mL in data set [2] and 1350 ng·h/mL in data set [7]. The same compound gave a clearance in [3] of 22.7 mL/min/kg. The half-life was 4.7 h in data set [4], 3.7 h in data set [9] and 3.1 h in [13]. Moreover, the Vd in data set [5] was 6.61 L/kg. Also, the Cmax in [6] was 109 ng/mL; in data set [11], 411 ng/mL. For the same compound, the Tmax in data set [8] stood at 4 h. In addition, the bioavailability in data set [10] turned out to be 19%. For the same compound, the AUC(0-t) at 24 h in [12] was found to be 3230 ng·h/mL. Besides, the Activity in [14] is 2%; in [15], 39%; in data set [16] it was 51%. In addition, the inhibition in vivo at 10 mg/kg in “animal or person [21]” came out at 76%. Moreover, the inhibition in vivo at 25 mg/kg in “animal or person [22]” stood at 52%. In addition, the inhibition in vivo at 50 mg/kg in the data set “animal or person [23]” was determined as 26%.
For `COc1cc(N2CCN(CCO)CC2)ccc1Nc1ncc(Cl)c(Nc2ccccc2P(C)(C)=O)n1`, the IC50 amounted to 0.0128 µM in data set [1]; 0.0281 µM against Insulin receptor; 0.00018 µM in data set [17]; 0.0376 µM in the data set “cells [18]”; 1.8 µM in the data set “cells [19]”. In addition, the AUC(0-inf) came out at 1330 ng·h/mL in data set [2] and 777 ng·h/mL in data set [7]. Further, the clearance in data set [3] was 35.8 mL/min/kg. Also, the values for the half-life in data set [4] and in [9] were 8.4 h and 2.9 h, respectively. For the same compound, in [5], the Vd was 9.51 L/kg. The compound also gave a Cmax in data set [6] of 75.7 ng/mL. Moreover, in [8], the Tmax worked out at 4 h. Besides, the bioavailability in data set [10] stood at 18%.
